Data from patent US9050268B2, “Functional amphipilic molecule or macromolecule formulations with multiple compartments” (UNIVERSITE d'AIX-MARSEILLE, priority 2009, dated 2015).

What was measured:
[1] = test system: IGROV1 cells (cisplatin-sensitive ovarian adenocarcinoma line); experiment: Assay of intracellular cisplatin (ICP optical assay after cell lysis); format: cell-based, human; settings: 10^6 IGROV1 cells, 100 μM, 2 hours
Method: (§1) IGROV1 cells (cisplatin-sensitive ovarian adenocarcinoma line) at 80% confluence (dish 10 cm in diameter) are treated with […] of free cisplatin or cisplatin encapsulated in the nanoparticles of Example 10 for 2, 4 or 6 hours. On completion of this treatment two washings with PBS are carried out. The cells are treated with trypsin and resuspended in PBS. Two washings of the cell suspensions with PBS are carried out (centrifugation 1000 rpm/1 min). The cells are suspended in 1 mL of PBS and counted.
(§2) 10^6 cells are lysed with 500 μL of the cell lysis solution (lysis buffer from SIGMA). The volume is topped up to 5 mL with milli-Q water with 1% HNO3 acid.

[2] = test system: SKV03 cells (cisplatin-resistant ovarian adenocarcinoma line); experiment: as above; format: cell-based; settings: 10^6 cells SKOV3, 100 μM, 2 hours
Method: as §1
The same procedure is followed with SKV03 cells (cisplatin-resistant ovarian adenocarcinoma line).
as §2

[3] = test system: cisplatin-resistant A2780/CisPt (Human ovarian carcinoma epithelial tumor); experiment: Cytotoxic effects on tumor lines (MTS cell viability); format: cell-based; settings: cisplatin-resistant line A2780; 24 hours treatment, MTS 48 hours after washing; read-out: concentration necessary to obtain 50% cell death (IC50)
Description: (§3) The study consists of determining the concentration inhibiting 50% of cell proliferation (IC50) on a panel of tumor lines, namely • cisplatin-sensitive A2780 (Human ovarian carcinoma epithelial tumor) and cisplatin-resistant A2780/CisPt (Human ovarian carcinoma epithelial tumor) • cisplatin-sensitive IGROV-1 (Human ovarian carcinoma) and cisplatin-resistant IGROV-1/CisPt (Human ovarian carcinoma) • cisplatin-sensitive L1210 (mouse lymphocytic leukemia) and cisplatin-resistant L1210/CisPt (mouse lymphocytic leukemia) […] • NIH: OVCAR3 (ovarian carcinoma), and • P388 (mouse lymphoma)
(§4) 2500 cells (ovarian adenocarcinoma lines, etc.) per well are incubated in 100 μL of the medium with serum in a 96-well plate. After 24 hours the medium is aspirated and the cells are treated with free cisplatin or cisplatin encapsulated in the nanoparticles of Example 10 in 100 μL of the medium without serum at different concentrations (500, 100, 10, 1, 0.1, 0.01, 0.001 μM). After treatment for 24 hours, the medium is removed and the cells are washed twice with 100 μL of PBS then incubated with 100 μL of the medium with serum.
(§5) The absorbance at 490 nm is measured after incubation for 2 to 4 hours at 37° C. The absorbance is proportional to the cell viability.

[4] = test system: cisplatin-sensitive A2780 (Human ovarian carcinoma epithelial tumor); experiment: as above; format: cell-based; settings: 24 hours treatment, MTS 48 hours after washing, read-out: concentration necessary to obtain 50% cell death (IC50)
Description: as §3, §4, §5

[5] = test system: IGROV1 (cisplatin-sensitive); experiment: Cytotoxic effects on tumor lines IGROV-1 and SKOV3 (MTS cell viability); format: cell-based, human; settings: 24 hours treatment, MTS 48 hours after washing, read-out: concentration necessary to obtain 50% cell death (IC50)
Method: as §4, with “(IGROV1, SKOV3, ovarian” for “(ovarian”, “lines)” for “lines, etc.)”
as §5

[6] = test system: SKOV3 (cisplatin-resistant); experiment: as above; format: cell-based; settings: 24 hours treatment, MTS 48 hours after washing, read-out: concentration necessary to obtain 50% cell death (IC50)
Method: as §4, with “(IGROV1, SKOV3, ovarian” for “(ovarian”, “lines)” for “lines, etc.)”
as §5

Q: Which cisplatin internalized [1] does the source give for N.N.[Cl][Pt][Cl] [free cisplatin, cisplatin] here?
A: 0.5 nmol

Q: And the cisplatin internalized [2]?
A: 0.5 nmol

Q: What about the IC50 [3] of the same molecule?
A: 29.2 µM

Q: What about the IC50 [4] of the same molecule?
A: 4.68 µM

Q: What about the IC50 [5] of the same molecule?
A: 2.41 µM

Q: What about the IC50 [6] of the same molecule?
A: 4.3 µM
